Assay results reported in BindingDB's records for patent US20260034094 (Kojin Therapeutics, 2026).

biological target: T1, Glutamate--cysteine ligase catalytic subunit (Homo sapiens, UniProt P48506); assay: GCL Enzyme Profiling Assay
T1 sequence (P48506 whole entry): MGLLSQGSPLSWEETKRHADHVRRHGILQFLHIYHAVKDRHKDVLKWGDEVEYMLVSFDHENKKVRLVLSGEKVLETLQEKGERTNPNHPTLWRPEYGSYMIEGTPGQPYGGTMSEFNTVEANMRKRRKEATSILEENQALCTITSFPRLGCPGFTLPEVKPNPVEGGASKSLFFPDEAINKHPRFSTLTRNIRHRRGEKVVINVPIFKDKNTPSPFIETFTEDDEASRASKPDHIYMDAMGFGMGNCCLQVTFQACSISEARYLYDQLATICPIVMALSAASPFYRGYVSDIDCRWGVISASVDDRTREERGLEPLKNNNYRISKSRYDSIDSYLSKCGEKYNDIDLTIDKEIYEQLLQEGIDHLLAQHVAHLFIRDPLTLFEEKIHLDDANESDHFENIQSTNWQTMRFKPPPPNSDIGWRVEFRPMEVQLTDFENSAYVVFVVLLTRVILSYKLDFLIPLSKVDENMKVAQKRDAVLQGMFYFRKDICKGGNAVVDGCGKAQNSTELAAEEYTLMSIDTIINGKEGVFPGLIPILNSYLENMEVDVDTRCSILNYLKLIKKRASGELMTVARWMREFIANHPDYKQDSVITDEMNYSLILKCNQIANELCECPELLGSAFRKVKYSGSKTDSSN
Description: Compound in pure DMSO was stamped in assay plates (Greiner black 384-well) or appropriate containers using a D300e digital dispenser (TECAN) and the final DMSO concentration was normalized to 1%. A 5 mL, or in the present case, 5 μL mixture of human recombinant GCL (final concentration: 5 nM) and ATP (final concentration: 0.6 mM) was added and the solution was incubated at room temperature (22° C.) for 1 h. […] The reaction was stopped after 1 h or in the present case, 2 h by addition of 5 mL, or in the present case, 5 μL ADP GLO Reagent (Promega). The resulting solution was incubated for 2 h at room temperature. This was then followed by addition of 5 mL, or in the present case, 5 μL ADP GLO Detection. After incubation at room temperature for 30 min, the plates were read on a plate reader (PheraStar) using a luminescence protocol to quantify the GCL enzyme activity from each reaction solution.

SMILES | IC50
N=S(=O)(CCc1cccc(Cl)c1F)CC[C@H](N)C(=O)O (stereo not given in full) [US20260034094, Compound 28] | < 20 µM
N=S(=O)(CCC(c1ccc(C2CC2)cc1)C(F)(F)F)CC[C@H](N)C(=O)O (stereo not given in full) [US20260034094, Compound 225] | < 20 µM
N=S(=O)(CCC(c1ccc(-c2ccc(Br)cc2)cc1)C(F)(F)F)CC[C@H](N)C(=O)O (stereo not given in full) [US20260034094, Compound 226] | < 20 µM
N=S(=O)(CCC(c1ccc(-c2cc[nH]n2)cc1)C(F)(F)F)CC[C@H](N)C(=O)O (stereo not given in full) [US20260034094, Compound 228] | < 20 µM
N=S(=O)(CCC(c1ccc(-c2cccc(C(N)=O)c2)cc1)C(F)(F)F)CC[C@H](N)C(=O)O (stereo not given in full) [US20260034094, Compound 229] | < 20 µM
N=S(=O)(CCC(c1ccc(-c2ccc(C(F)F)cc2)cc1)C(F)(F)F)CC[C@H](N)C(=O)O (stereo not given in full) [US20260034094, Compound 231] | < 20 µM
N=S(=O)(CCC(c1ccc(-c2cnc(N)nc2)cc1)C(F)(F)F)CC[C@H](N)C(=O)O (stereo not given in full) [US20260034094, Compound 251] | < 20 µM
N=S(=O)(CCC(c1ccc(-c2cnc3[nH]ccc3c2)cc1)C(F)(F)F)CC[C@H](N)C(=O)O (stereo not given in full) [US20260034094, Compound 253] | < 20 µM
N=S(=O)(CCC(c1ccc(-c2cnc3[nH]ncc3c2)cc1)C(F)(F)F)CC[C@H](N)C(=O)O (stereo not given in full) [US20260034094, Compound 254] | < 20 µM
N=S(=O)(CCC(c1ccc(-c2ccc3cn[nH]c3c2)cc1)C(F)(F)F)CC[C@H](N)C(=O)O (stereo not given in full) [US20260034094, Compound 255] | < 20 µM
N=S(=O)(CCC(c1ccc(-c2ccc(Cl)s2)cc1)C(F)(F)F)CC[C@H](N)C(=O)O (stereo not given in full) [US20260034094, Compound 256] | < 20 µM
N=S(=O)(CCC(c1ccc(-c2ccoc2)cc1)C(F)(F)F)CC[C@H](N)C(=O)O (stereo not given in full) [US20260034094, Compound 258] | < 20 µM

Results, then the molecule that gave them:

IC50 | SMILES
> 2000 µM | CC(C)(C)CCS(=N)(=O)CC[C@H](N)C(=O)Nc1nccs1 (stereo not given in full) [US20260034094, Compound 121]
< 20 µM | N=S(=O)(CCC(c1ccc(-c2ccccc2F)cc1)C(F)(F)F)CC[C@H](N)C(=O)O (stereo not given in full) [US20260034094, Compound 217]
< 20 µM | N=S(=O)(CCC(c1ccc(-c2cn[nH]c2)cc1)C(F)(F)F)CC[C@H](N)C(=O)O (stereo not given in full) [US20260034094, Compound 227]
< 20 µM | CNC(=O)c1cccc(-c2ccc(C(CCS(=N)(=O)CC[C@H](N)C(=O)O)C(F)(F)F)cc2)c1 (stereo not given in full) [US20260034094, Compound 230]
< 20 µM | N=S(=O)(CCC(c1ccc(-c2ccccc2O)cc1)C(F)(F)F)CC[C@H](N)C(=O)O (stereo not given in full) [US20260034094, Compound 235]
< 20 µM | CC(C)(O)c1cccc(-c2ccc(C(CCS(=N)(=O)CC[C@H](N)C(=O)O)C(F)(F)F)cc2)c1 (stereo not given in full) [US20260034094, Compound 241]
< 20 µM | N=S(=O)(CCC(c1ccc(-c2cccnc2)cc1)C(F)(F)F)CC[C@H](N)C(=O)O (stereo not given in full) [US20260034094, Compound 243]
< 20 µM | N=S(=O)(CCC(c1ccc(-c2ccc(C(N)=O)nc2)cc1)C(F)(F)F)CC[C@H](N)C(=O)O (stereo not given in full) [US20260034094, Compound 245]
< 20 µM | Cc1ccc(-c2ccc(C(CCS(=N)(=O)CC[C@H](N)C(=O)O)C(F)(F)F)cc2)cn1 (stereo not given in full) [US20260034094, Compound 246]
< 20 µM | Cc1nc(Cl)ccc1-c1ccc(C(CCS(=N)(=O)CC[C@H](N)C(=O)O)C(F)(F)F)cc1 (stereo not given in full) [US20260034094, Compound 248]
< 20 µM | CN1CCN(c2ccc(-c3ccc(C(CCS(=N)(=O)CC[C@H](N)C(=O)O)C(F)(F)F)cc3)cn2)CC1 (stereo not given in full) [US20260034094, Compound 249]
< 20 µM | N=S(=O)(CCC(c1ccc(-c2cnc(C3CC3)nc2)cc1)C(F)(F)F)CC[C@H](N)C(=O)O (stereo not given in full) [US20260034094, Compound 252]
< 20 µM | N=S(=O)(CCC(c1ccc(-c2ccsc2)cc1)C(F)(F)F)CC[C@H](N)C(=O)O (stereo not given in full) [US20260034094, Compound 257]
